Data set [1] concerns the target KRas G12C (Homo sapiens, UniProt P01116, G12C). As to the kind of experiment: Cellular inhibition of KRas G12C measured by Phospho-ERK in NCI-H358 cells. The class given is cell-based. The following applies: pERK(Thr202/Tyr204) normalized with GAPDH, NCI-H358 cells, 3 hours; read-out: IC50. A digest of the protocol:
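Following 8-12 h attachment, NCI-H358 cells got serially diluted compound (0.5% DMSO) for 3 hours. Cells were then fixed, permeabilized with cold methanol, and stained for pERK(Thr202/Tyr204) and GAPDH. Ratios were converted to percent of DMSO control, with IC50 obtained by four-parameter regression.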

A short description of data set [2]: In vitro stability in human whole blood. The class given is in vitro ADME. The following applies: male, whole blood diluted to 50% with PBS, 37° C. The text has this: Materials: The following reagents were used as received: acetonitrile (HPLC grade, Burdick & Jackson, Madison, Wis.), phosphate buffered saline (PBS), pH 7.4 (Sigma-Aldrich, Co., St. Louis, Mo.), water (HPLC grade, JT Baker, Phillipsburg, N.J.), DMSO (EM Science, Merck KGaA, Darmstadt, Germany) and isopropanol (IPA, reagent grade, EMD Chemicals, Gibbstown, N.J.). Propantheline and esmolol (Sigma-Aldrich) were used as the positive control compounds in the assay. Diazepam (Sigma-Aldrich) was used as an internal standard for quantitation. Human whole blood was obtained from BioIVT (Westbury, N.Y.) […]. All other reagents and solvents were of the highest analytical grade supplied by Sigma (St. Louis, Mo.) and were used as received.
Blood Incubations: The in vitro stability of representative KRas G12C inhibitor compounds of the present invention in the presence whole blood was conducted in the following manner. Esmolol or propantheline, which are known to undergo ester hydrolysis by esterases in blood and plasma, were used as the positive controls in the assays. A 10 mM stock solution of propantheline, esmolol, or a compound of the present invention in DMSO was diluted to 500 μM with DMSO. Aliquots of whole blood (600 μL), in triplicate, were placed in the appropriate wells of a polypropylene 96-deep well plate (Axygen Scientific, Union City, Calif.). The blood was diluted to 50% using PBS, pH 7.4 (600 μL). The diluted blood was pre-incubated for 15 minutes at 37° C. Each well was dosed with 12 μL of the 500 μM DMSO stock simultaneously for a final test concentration of 5 μM. The plates were mixed at 600 rpm for 10 seconds on a plate shaker (IKA MTS 2/4 Digital Microtiter Shaker, VWR). Aliquots of 100 μL from each well of whole blood were transferred to three separate 96-deep well plates labeled 0, 60, or 240 minutes. At the end of each designated time point, the red blood cells were lysed with 100 μL of water, mixed at 600 rpm for one minute, and stopped with 800 μL of acetonitrile containing IS (0.625 μM diazepam). The plates were mixed on the plate shaker at 600 rpm for one minute and spun in a centrifuge at 2095×g for 7 minutes at room temperature using an Allegra benchtop centrifuge (Beckman Coulter, Fullerton, Calif.). Supernatant (100 μL) was transferred to a shallow 96-well plate (Costar) using a liquid sample handling system (Apricot, Perkin-Elmer, Boston, Mass.). The addition of 100 μL of water was added to each sample of supernatant for a final volume of 200 μL. The plates were sealed and the contents of each well were analyzed by LC-MS/MS.
Analytical quantitation: The LC-MS/MS system was comprised of an HTS-PAL autosampler (Leap Technologies, Carrboro, N.C.), an HP1200 HPLC (Agilent, Palo Alto, Calif.), and an API4000 triple quadrupole mass spectrometer (PE Sciex, a division of Applied Biosystems, Foster City, Calif.). […] The total run time, including re-equilibration, for a single injection was 2 minutes. Mass spectrometric detection of the analytes was accomplished using the ESI ionization mode. Ion current was optimized during infusion of a stock solution of propantheline, esmolol, or the representative test compound. Analyte responses, including the IS were measured by multiple reaction monitoring (MRM) of transitions unique to each compound.
Calculations: Data were acquired and peak areas were calculated for test compounds and the internal standard using Analyst 1.6.2 software (Sciex). The mean peak area ratios were calculated by averaging the peak area ratios (n=3) of each test compound and the IS for each sample.
Peak area tables were exported to BioAssay Enterprise (CambridgeSoft, Cambridge, Mass.), where the average analyte-to-internal standard peak area ratios were used to calculate percent remaining (% REM) and half-life (t1/2). Percent remaining (f) was calculated by determining the ratio of the peak area ratio at each time point to the peak area ratio of the time-zero samples. […]

Data set [3] addresses KRas G12C (Homo sapiens, UniProt P01116, C118S/C51S/C80L/G12C). As to the kind of experiment: KRas G12C Modification Assay (LCMS detection of covalent adduct). The class given is binding. The following applies: normalized percent of control; 5 μM concentration for 3 hours. Summed up:
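Intact protein analysed by LC/MS with deconvolution; unmodified protein signal normalized to no-compound control and reported as percent of control (POC).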

Setting [4] is: pH 7.4, human whole blood diluted to 50% with PBS, 5 μM, 240-minute incubation, read-out: Compound Half-life.

pIC50: −log10 of the molar value. Like-named read-outs stand apart in the source and are kept apart here.

By pIC50 is commonly meant the IC50 on a negative log10 scale, so that one unit is a factor of ten. As a reminder, the half-life is the time in which the quantity being followed falls by half. Turning to `C=C(OC)C(=O)N1CCN(c2nc(OC[C@@H]3CCCN3C)nc3c2CCN(c2cccc4cccc(Cl)c24)C3)C[C@@H]1CC#N` [Example 514, 2-[(2S)-4-[7-(8-chloro-1-naphthyl)-2-[[(2S)-1-methylpyrrolidin-2-yl]methoxy]-6,8-dihydro-5H-pyrido[3,4-d]pyrimidin-4-yl]-1-(2-methoxyprop-2-enoyl)piperazin-2-yl] acetonitrile], the pIC50 at KRas G12C [1] is less than 6.00. Also, the half-life at 5 µM in data set [2] (setting [4]) is greater than 33.3 h. Take `COC/C=C/C(=O)N1CCN(c2nc(OC[C@@H]3CCCN3C)nc3c2CCN(c2cccc4cccc(Cl)c24)C3)C[C@@H]1CC#N` [Example 524, 2-((S)-4-(7-(8-chloronaphthalen-1-yl)-2-(((S)-1-methylpyrrolidin-2-yl)methoxy)-5,6,7,8-tetrahydropyrido[3,4-d]pyrimidin-4-yl)-1-((E)-4-methoxybut-2-enoyl)piperazin-2-yl)acetonitrile]: at KRas G12C [1], the pIC50 was 6.00 to 10.00. The half-life at 5 µM in data set [2] (setting [4]) was greater than 33.3 h.

With `C=C(F)C(=O)N1CCN(c2nc(OC[C@H]3CCCN3C)nc3c2CCN(c2cccc4cccc(C)c24)C3)C[C@@H]1CC#N` [Example 516, 2-((S)-1-(2-fluoroacryloyl)-4-(7-(8-methylnaphthalen-1-yl)-2-(((R)-1-methylpyrrolidin-2-yl)methoxy)-5,6,7,8-tetrahydropyrido[3,4-d]pyrimidin-4-yl)piperazin-2-yl)acetonitrile], on KRas G12C [1], the pIC50 is 6.00 to 10.00. The half-life at 5 µM in data set [2] (setting [4]) is greater than 33.3 h.

On to `CN1CCC[C@H]1COc1nc2c(c(N3CCN(C(=O)/C=C/CN4CC(F)C4)[C@@H](CC#N)C3)n1)CCN(c1cccc3cccc(Cl)c13)C2` [Example 481, 2-[(2S)-4-[7-(8-chloro-1-naphthyl)-2-[[(2S)-1-methylpyrrolidin-2-yl]methoxy]-6,8-dihydro-5H-pyrido[3,4-d]pyrimidin-4-yl]-1-[(E)-4-(3-fluoroazetidin-1-yl)but-2-enoyl]piperazin-2-yl]acetonitrile], for which the pIC50 on KRas G12C [1] was 6.00 to 10.00. The half-life at 5 µM in data set [2] (setting [4]) is greater than 33.3 h. For `Cc1cccc2cccc(N3CCc4c(nc(OC[C@@H]5CCCN5C)nc4N4CCN(C(=O)/C=C/Cn5cccn5)[C@@H](CC#N)C4)C3)c12` [Example 509] the same measures were 6.00 to 10.00 and greater than 33.3 h.

As for `C=CC(=O)N1CCN(c2nc(OC[C@@H]3CCCN3C)nc3c2CCN(c2cccc4cccc(C)c24)C3)C[C@@H]1CC#N` [Example 359, 2-[(2S)-4-[7-(8-methyl-1-naphthyl)-2-[[(2S)-1-methylpyrrolidin-2-yl]methoxy]-6,8-dihydro-5H-pyrido[3,4-d]pyrimidin-4-yl]-1-prop-2-enoyl-piperazin-2-yl]acetonitrile], the pIC50 on KRas G12C [1] is 6.00 to 10.00. For the same molecule, the half-life at 5 µM in data set [2] (setting [4]) lay within 3.33 to 16.7 h.

Turning to `Cc1cccc2cccc(N3CCc4c(nc(OC[C@@H]5CCCN5C)nc4N4CCN(C(=O)/C=C/CN5CC(F)C5)[C@@H](CC#N)C4)C3)c12` [Example 515, 2-[(2S)-1-[(E)-4-(3-fluoroazetidin-1-yl)but-2-enoyl]-4-[7-(8-methyl-1-naphthyl)-2-[[(2S)-1-methylpyrrolidin-2-yl]methoxy]-6,8-dihydro-5H-pyrido[3,4-d]pyrimidin-4-yl]piperazin-2-yl]acetonitrile], in data set [2] (setting [4]), the half-life at 5 µM was greater than 33.3 h. The same measure, in the same setting: the value for `C=C(F)C(=O)N1CCN(c2nc(OC[C@@H]3CCCN3C)nc3c2CCN(c2cccc4cccc(Cl)c24)C3)C[C@@H]1CC#N` [Example 478, 2-[(2S)-4-[7-(8-chloro-1-naphthyl)-2-[[(2S)-1-methylpyrrolidin-2-yl]methoxy]-6,8-dihydro-5H-pyrido[3,4-d]pyrimidin-4-yl]-1-(2-fluoroprop-2-enoyl)piperazin-2-yl]acetonitrile] was greater than 33.3 h. Consider `CC(C)[N+](C)(CCOC(=O)C1c2ccccc2Oc2ccccc21)C(C)C` [Propantheline, reference compound], for which the half-life at 5 µM was no more than 3.33 h in data set [2] (setting [4]) and 1.63 h in data set [2] (pH 7.4, human whole blood, positive control, read-out: half life). As for `COC/C=C/C(=O)N1CCN(c2nc(OC[C@H]3C[C@@H](OC)CN3C)nc3c2CCN(c2cccc4cccc(C)c24)C3)C[C@@H]1CC#N` [Example 552, 2-[(2S)-1-[(E)-4-methoxybut-2-enoyl]-4-[2-[[(2R,4R)-4-methoxy-1-methyl-pyrrolidin-2-yl]methoxy]-7-(8-methyl-1-naphthyl)-6,8-dihydro-5H-pyrido[3,4-d]pyrimidin-4-yl]piperazin-2-yl]acetonitrile], the half-life at 5 µM in data set [2] (setting [4]) was greater than 33.3 h. The same measure, in the same setting: with `C=C(F)C(=O)N1CCN(c2nc(OC[C@H]3CCCN3C)nc3c2CCN(c2cccc4cccc(Cl)c24)C3)C[C@@H]1CC#N` [Example 557, 2-[(2S)-4-[7-(8-Chloro-1-naphthyl)-2-[[(2R)-1-methylpyrrolidin-2-yl]methoxy]-6,8-dihydro-5H-pyrido[3,4-d]pyrimidin-4-yl]-1-(2-fluoroprop-2-enoyl)piperazin-2-yl]acetonitrile] the figure was greater than 33.3 h; with `C=CC(=O)N1CCN(c2nc(OC[C@@H]3CCCN3C)nc3c2CCN(c2cccc4cccc(Cl)c24)C3)C[C@@H]1CC#N` [Example 331, 2-[(2S)-4-[7-(8-chloro-1-naphthyl)-2-[[(2S)-1-methylpyrrolidin-2-yl]methoxy]-6,8-dihydro-5H-pyrido[3,4-d]pyrimidin-4-yl]-1-prop-2-enoyl-piperazin-2-yl]acetonitrile], 3.33 to 16.7 h. As to `CN1CCC[C@H]1COc1nc2c(c(N3CCN(C(=O)/C=C/CN4CCC(F)(F)C4)[C@@H](CC#N)C3)n1)CCN(c1cccc(Cl)c1C(F)(F)F)C2` [Example 471, 2-[(2S)-4-[7-[3-chloro-2-(trifluoromethyl)phenyl]-2-[[(2S)-1-methylpyrrolidin-2-yl]methoxy]-6,8-dihydro-5H-pyrido[3,4-d]pyrimidin-4-yl]-1-[(E)-4-(3,3-difluoropyrrolidin-1-yl)but-2-enoyl]piperazin-2-yl]acetonitrile], the pIC50 on KRas G12C [1] is less than 6.00. Moreover, the POC entry at KRas G12C [3] is recorded as “C (“C”>50% POC)”. The like results for `C=C(F)C(=O)N1CCN(c2nc(OCCN(C)C)nc3c2CCN(c2cccc4cccc(C)c24)C3)C[C@@H]1CC#N` [Example 559, 2-[(2S)-4-[2-[2-(Dimethylamino)ethoxy]-7-(8-methyl-1-naphthyl)-6,8-dihydro-5H-pyrido[3,4-d]pyrimidin-4-yl]-1-(2-fluoroprop-2-enoyl)piperazin-2-yl]acetonitrile] were, in that order, 6.00 to 10.00 and “C (“C”>50% POC)”. For `C=C(F)C(=O)N1CCN(c2nc(OC[C@H]3C[C@@H](OC)CN3C)nc3c2CCN(c2cccc4cccc(Cl)c24)C3)C[C@@H]1CC#N` [Example 576, 2-[(2S)-4-[7-(8-Chloro-1-naphthyl)-2-[[(2R,4R)-4-methoxy-1-methyl-pyrrolidin-2-yl]methoxy]-6,8-dihydro-5H-pyrido[3,4-d]pyrimidin-4-yl]-1-(2-fluoroprop-2-enoyl)piperazin-2-yl]acetonitrile] the same measures were 6.00 to 10.00 and “C (“C”>50% POC)”.
